{"source": "patent US11530193B2", "about": "“Kinase inhibitors” (The University of Manchester, priority 2018, dated 2022)", "note": "Where a name gives a salt, the structure may show the parent alone.", "data": [{"molecular_target": "CAMK1D (Homo sapiens (Human), UniProt Q8IU85)", "sequence (Q8IU85 1-333)": "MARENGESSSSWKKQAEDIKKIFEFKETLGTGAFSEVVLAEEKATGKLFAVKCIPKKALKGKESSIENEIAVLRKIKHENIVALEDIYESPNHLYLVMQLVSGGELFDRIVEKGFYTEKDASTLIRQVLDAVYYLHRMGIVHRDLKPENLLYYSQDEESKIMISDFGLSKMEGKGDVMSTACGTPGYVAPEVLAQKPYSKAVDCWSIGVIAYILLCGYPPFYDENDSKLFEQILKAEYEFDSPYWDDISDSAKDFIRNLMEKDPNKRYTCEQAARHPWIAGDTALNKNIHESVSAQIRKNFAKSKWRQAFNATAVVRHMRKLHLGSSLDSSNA", "assay": "Tm-Shift assay (thermal melting, SYPRO Orange);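 as to SYK Tm-Shift: recombinant His-tagged protein made in Sf9 insect cells by baculovirus, in HEPES NaCl buffer, heated stepwise with fluorescence recorded at every temperature step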", "type": "binding", "conditions": "compound 10 μM, protein 2 μM; ΔTm obs vs protein without ligand; triplicate", "units": {"CAMK1d Tm-Shift": "°C"}, "values": [{"smiles": "Cc1ccc(Nc2nc(N3CCC[C@H](N)C3)ncc2C(N)=O)cc1S(=O)(=O)N1CCCCC1", "note": "[Example 6, (S)-2-(3-aminopiperidin-1-yl)-4-((4-methyl-3-(piperidin-1-ylsulfonyl)phenyl)amino) pyrimidine-5-carboxamide]", "CAMK1d Tm-Shift": 9.9}, {"smiles": "CN(C)CCN(C)C(=O)c1cccc(Nc2nc(N3CCC[C@H](N)C3)ncc2C(N)=O)c1", "note": "[Example 25, (S)-2-(3-aminopiperidin-1-yl)-4-((3-((2-(dimethylamino)ethyl)(methyl)carbamoyl)phenyl)amino) pyrimidine-5-carboxamide]", "CAMK1d Tm-Shift": 8.1}]}, {"molecular_target": "CAMK1D (Homo sapiens (Human), UniProt Q8IU85)", "assay": "Tm-Shift assay (thermal melting, SYPRO Orange)", "type": "binding", "conditions": "read-out: CAMK1d Tm-Shift", "units": {"ΔTm at 10 µM": "°C"}, "values": [{"smiles": "CS(=O)(=O)c1cc(Nc2nc(N3CCC[C@H](N)C3)ncc2C(N)=O)cc(S(C)(=O)=O)c1.Cl", "note": "[Example 9, (S)-2-(3-aminopiperidin-1-yl)-4-((3,5-bis(methylsulfonyl)phenyl)amino)pyrimidine-5-carboxamide hydrochloride]", "ΔTm at 10 µM": 10.1}, {"smiles": "CC(C)(C)c1cc(Nc2nc(N3CCC[C@@H](N)C3)ncc2C(N)=O)cc(C(C)(C)C)c1", "note": "[Example 7, (R)-2-(3-aminopiperidin-1-yl)-4-((3,5-di-tert-butylphenyl)amino)pyrimidine-5-carboxamide hydrochloride]", "ΔTm at 10 µM": 10.6}, {"smiles": "CC(C)(C#N)c1cccc(Nc2nc(N3CCC[C@H](N)C3)ncc2C(N)=O)c1", "note": "[Example 4, (S)-2-(3-aminopiperidin-1-yl)-4-((3-(2-cyanopropan-2-yl)phenyl)amino)pyrimidine-5-carboxamide]", "ΔTm at 10 µM": 9}, {"smiles": "COC1(c2cc(Nc3nc(N4CCC[C@H](N)C4)ncc3C(N)=O)cc(C(F)(F)F)c2)CC1", "note": "[Example 122, (S)-2-(3-aminopiperidin-1-yl)-4-((3-(1-methoxycyclopropyl)-5-(trifluoromethyl)phenyl)amino)pyrimidine-5-carboxamide]", "ΔTm at 10 µM": -0.8}, {"smiles": "CC(C)(C)c1cccc(Nc2nc(N3CCCC(N)C3)ncc2C(N)=O)c1", "note": "(stereo not shown) [Example 1, 2-(3-aminopiperidin-1-yl)-4-((3-(tert-butyl)phenyl)amino)pyrimidine-5-carboxamide]", "ΔTm at 10 µM": 10.6}, {"smiles": "CC(C)(C)c1cc(Nc2nc(N3CCC[C@H](N)C3)ncc2C(N)=O)cc(C(C)(C)C)c1", "note": "[Example 3, (S)-2-(3-aminopiperidin-1-yl)-4-((3,5-di-tert-butylphenyl)amino)pyrimidine-5-carboxamide]", "ΔTm at 10 µM": 13.4}, {"smiles": "CC(C)(C)c1cc(Nc2nc(N3CCCC(N)C3)ncc2C(N)=O)cc(C(C)(C)C)c1", "note": "(stereo not shown) [Example 2, 2-(3-aminopiperidin-1-yl)-4-((3,5-di-tert-butylphenyl)amino)pyrimidine-5-carboxamide]", "ΔTm at 10 µM": 14}]}, {"molecular_target": "SYK (Homo sapiens (Human), UniProt P43405)", "assay": "Tm-Shift assay (thermal melting, SYPRO Orange)", "type": "binding", "conditions": "not given", "units": {"SYK Tm-Shift": "°C"}, "values": [{"smiles": "Cc1ccc(Nc2nc(N3CCC[C@H](N)C3)ncc2C(N)=O)cc1S(=O)(=O)N1CCCCC1", "note": "[Example 6, (S)-2-(3-aminopiperidin-1-yl)-4-((4-methyl-3-(piperidin-1-ylsulfonyl)phenyl)amino) pyrimidine-5-carboxamide]", "SYK Tm-Shift": 3.3}, {"smiles": "CS(=O)(=O)c1cc(Nc2nc(N3CCC[C@H](N)C3)ncc2C(N)=O)cc(S(C)(=O)=O)c1.Cl", "note": "[Example 9, (S)-2-(3-aminopiperidin-1-yl)-4-((3,5-bis(methylsulfonyl)phenyl)amino)pyrimidine-5-carboxamide hydrochloride]", "SYK Tm-Shift": 0.2}, {"smiles": "CN(C)CCN(C)C(=O)c1cccc(Nc2nc(N3CCC[C@H](N)C3)ncc2C(N)=O)c1", "note": "[Example 25, (S)-2-(3-aminopiperidin-1-yl)-4-((3-((2-(dimethylamino)ethyl)(methyl)carbamoyl)phenyl)amino) pyrimidine-5-carboxamide]", "SYK Tm-Shift": 0.7}, {"smiles": "CC(C)(C)c1cc(Nc2nc(N3C[C@H](N)C[C@H](N)C3)ncc2C(N)=O)cc(C(C)(C)C)c1.Cl.Cl", "note": "[Example 11, 4-((3,5-di-tert-butylphenyl)amino)-2-((3S,5R)-3,5-diaminopiperidin-1-yl)pyrimidine-5-carboxamide dihydrochloride]", "SYK Tm-Shift": "−0.5"}, {"smiles": "COC[C@H]1CCCN1C(=O)c1cccc(Nc2nc(N3CCC[C@H](N)C3)ncc2C(N)=O)c1.Cl", "note": "[Example 36, 2-((S)-3-aminopiperidin-1-yl)-4-((3-((R)-2-(methoxymethyl)pyrrolidine-1-carbonyl)phenyl)amino)pyrimidine-5-carboxamide hydrochloride]", "SYK Tm-Shift": 1.4}, {"smiles": "CC(C)(O)C1CN(C(=O)c2cccc(Nc3nc(N4CCC[C@H](N)C4)ncc3C(N)=O)c2)C1.Cl", "note": "[Example 37, (S)-2-(3-aminopiperidin-1-yl)-4-((3-(3-(2-hydroxypropan-2-yl)azetidine-1-carbonyl)phenyl)amino)pyrimidine-5-carboxamide hydrochloride]", "SYK Tm-Shift": 5.0}, {"smiles": "CN1CCN(C(=O)c2cccc(Nc3nc(N4CCC[C@H](N)C4)ncc3C(N)=O)c2)CC1=O.Cl", "note": "[Example 38, (S)-2-(3-aminopiperidin-1-yl)-4-((3-(4-methyl-3-oxopiperazine-1-carbonyl)phenyl)amino)pyrimidine-5-carboxamide hydrochloride]", "SYK Tm-Shift": 3.4}, {"smiles": "C[C@@H]1COC[C@H](C)N1C(=O)c1cccc(Nc2nc(N3CCC[C@H](N)C3)ncc2C(N)=O)c1.Cl", "note": "[Example 33, 2-((S)-3-aminopiperidin-1-yl)-4-((3-((3S,5R)-3,5-dimethylmorpholine-4-carbonyl)phenyl)amino)pyrimidine-5-carboxamide hydrochloride]", "SYK Tm-Shift": 0.5}]}, {"molecular_target": "SYK (Homo sapiens (Human), UniProt P43405)", "assay": "Tm-Shift assay (thermal melting, SYPRO Orange)", "type": "binding", "conditions": "compound 10 μM, protein 2 μM; ΔTm obs vs protein without ligand; triplicate", "units": {"SYK Tm-Shift": "°C"}, "values": [{"smiles": "NC(=O)c1cnc(N2CCC[C@H](N)C2)nc1Nc1cc(C(=O)N2CCOCC2)cc(C(F)(F)F)c1", "note": "[Example 43, (S)-2-(3-aminopiperidin-1-yl)-4-((3-(morpholine-4-carbonyl)-5-(trifluoromethyl)phenyl)amino)pyrimidine-5-carboxamide]", "SYK Tm-Shift": 1.2}, {"smiles": "Cc1ccccc1-c1cccc(Nc2nc(N3CCC[C@H](N)C3)ncc2C(N)=O)c1", "note": "[Example 10, (S)-2-(3-aminopiperidin-1-yl)-4-((2′-methyl-[1,1′-biphenyl]-3-yl)amino)pyrimidine-5-carboxamide]", "SYK Tm-Shift": 6.5}, {"smiles": "CC(C)(C#N)c1cc(Nc2nc(N3CCC[C@H](N)C3)ncc2C(N)=O)cc(C(=O)N2CCCC2)c1", "note": "[Example 47, (S)-2-(3-aminopiperidin-1-yl)-4-((3-(2-cyanopropan-2-yl)-5-(pyrrolidine-1-carbonyl)phenyl)amino)pyrimidine-5-carboxamide]", "SYK Tm-Shift": 0.7}, {"smiles": "CC(C)(O)c1cc(Nc2nc(N3CCC[C@H](N)C3)ncc2C(N)=O)cc(C(C)(C)O)c1", "note": "[Example 90, (S)-2-(3-aminopiperidin-1-yl)-4-((3,5-bis(2-hydroxypropan-2-yl)phenyl)amino) pyrimidi-ne-5-carboxamide]", "SYK Tm-Shift": 0.9}, {"smiles": "NC(=O)c1cnc(N2CCC[C@H](N)C2)nc1Nc1cc(C2CC2)cc(C2CC2)c1", "note": "[Example 53, (S)-2-(3-aminopiperidin-1-yl)-4-((3,5-dicyclopropylphenyl)amino)pyrimidine-5-carboxamide]", "SYK Tm-Shift": 8.2}, {"smiles": "CN(C)C(=O)c1cc(Nc2nc(N3CCC[C@H](N)C3)ncc2C(N)=O)cc(C(C)(C)C#N)c1", "note": "[Example 46, (S)-2-(3-aminopiperidin-1-yl)-4-((3-(2-cyanopropan-2-yl)-5-(dimethylcarbamoyl)phenyl)amino)pyrimidine-5-carboxamide]", "SYK Tm-Shift": 0.5}, {"smiles": "C[C@@H]1CN(C(=O)c2cccc(Nc3nc(N4CCC[C@H](N)C4)ncc3C(N)=O)c2)C[C@H](C)O1", "note": "[Example 39, 2-((S)-3-aminopiperidin-1-yl)-4-((3-((2R,6S)-2,6-dimethylmorpholine-4-carbonyl)phenyl)amino)pyrimidine-5-carboxamide]", "SYK Tm-Shift": 3.1}, {"smiles": "NC(=O)c1cnc(N2CCC[C@H](N)C2)nc1Nc1cccc(C(=O)N2CCCCC2)c1", "note": "[Example 26, (S)-2-(3-aminopiperidin-1-yl)-4-((3-(piperidine-1-carbonyl)phenyl)amino)pyrimidine-5-carboxamide]", "SYK Tm-Shift": 1.8}, {"smiles": "CN(C)C(=O)c1cccc(Nc2nc(N3CCC[C@H](N)C3)ncc2C(N)=O)c1", "note": "[Example 23, (S)-2-(3-aminopiperidin-1-yl)-4-((3-(dimethylcarbamoyl)phenyl)amino)pyrimidine-5-carboxamide]", "SYK Tm-Shift": 1.6}, {"smiles": "NC(=O)c1cnc(N2CCC[C@H](N)C2)nc1Nc1cc(C(=O)N2CCOCC2)cc(-c2ccccc2)c1", "note": "[Example 21, (S)-2-(3-aminopiperidin-1-yl)-4-((5-(morpholine-4-carbonyl)-[1,1′-biphenyl]-3-yl)amino)pyrimidine-5-carboxamide]", "SYK Tm-Shift": 0.3}, {"smiles": "COc1ccc2c(c1)CN(C(=O)c1cccc(Nc3nc(N4CCC[C@H](N)C4)ncc3C(N)=O)c1)C2", "note": "[Example 35, (S)-2-(3-aminopiperidin-1-yl)-4-((3-(5-methoxyisoindoline-2-carbonyl)phenyl)amino)pyrimidine-5-carboxamide]", "SYK Tm-Shift": 4.3}, {"smiles": "CC(C)(C#N)c1cc(Nc2nc(N3CCC[C@H](N)C3)ncc2C(N)=O)cc(C(=O)N2CCOCC2)c1", "note": "[Example 48, (S)-2-(3-aminopiperidin-1-yl)-4-((3-(2-cyanopropane-2-yl)-5-(morpholine-4-carbonyl)phenyl)amino)pyrimidine-5-carboxamide]", "SYK Tm-Shift": 0.5}, {"smiles": "Cc1cccc(C)c1-c1cc(Nc2nc(N3CCC[C@H](N)C3)ncc2C(N)=O)cc(C(=O)N2CCOCC2)c1", "note": "[Example 20, (S)-2-(3-aminopiperidin-1-yl)-4-((2′,6′-dimethyl-5-(morpholine-4-carbonyl)-[1,1′-biphenyl]-3-yl)amino)pyrimidine-5-carboxamide]", "SYK Tm-Shift": 0.3}, {"smiles": "NC(=O)c1cnc(N2CCC[C@H](N)C2)nc1Nc1cccc(C(=O)N2CCOCC2)c1", "note": "[Example 24, (S)-2-(3-aminopiperidin-1-yl)-4-((3-(morpholine-4-carbonyl)phenyl)amino)pyrimidine-5-carboxamide]", "SYK Tm-Shift": 1.4}, {"smiles": "CC(C)(O)c1cc(Nc2nc(N3CCC[C@H](N)C3)ncc2C(N)=O)cc(C(F)(F)F)c1", "note": "[Example 89, (S)-2-(3-aminopiperidin-1-yl)-4-((3-(2-hydroxypropan-2-yl)-5-(trifluoromethyl)phenyl)amino)pyrimidine-5-carboxamide]", "SYK Tm-Shift": 3.4}, {"smiles": "CC(C)(C)c1cc(Nc2nc(N3CCC[C@H](N)C3)ncc2C(N)=O)ccn1", "note": "[Example 8, (S)-2-(3-aminopiperidin-1-yl)-4-((2-(tert-butyl)pyridin-4-yl)amino)pyrimidine-5-carboxamide]", "SYK Tm-Shift": 3.2}, {"smiles": "CC1(C)C(=O)Nc2ccc(Nc3nc(N4CCC[C@H](N)C4)ncc3C(N)=O)cc21", "note": "[Example 65, (S)-2-(3-aminopiperidin-1-yl)-4-((3,3-dimethyl-2-oxoindolin-5-yl)amino)pyrimidine-5-carboxamide]", "SYK Tm-Shift": 0.3}]}]}
